Measurements reported in ChEMBL document CHEMBL1148537, “The first de novo designed inhibitors of Plasmodium falciparum dihydroorotate dehydrogenase” (Bioorg Med Chem Lett, 2006).

How the values were obtained:
[1] = target: T1, Dihydroorotate dehydrogenase (Plasmodium falciparum, UniProt Q54A96); experiment: Binding affinity to Plasmodium falciparum DHODH; details: for Ki: read-out: Ki app
T1 sequence (Q54A96 whole entry): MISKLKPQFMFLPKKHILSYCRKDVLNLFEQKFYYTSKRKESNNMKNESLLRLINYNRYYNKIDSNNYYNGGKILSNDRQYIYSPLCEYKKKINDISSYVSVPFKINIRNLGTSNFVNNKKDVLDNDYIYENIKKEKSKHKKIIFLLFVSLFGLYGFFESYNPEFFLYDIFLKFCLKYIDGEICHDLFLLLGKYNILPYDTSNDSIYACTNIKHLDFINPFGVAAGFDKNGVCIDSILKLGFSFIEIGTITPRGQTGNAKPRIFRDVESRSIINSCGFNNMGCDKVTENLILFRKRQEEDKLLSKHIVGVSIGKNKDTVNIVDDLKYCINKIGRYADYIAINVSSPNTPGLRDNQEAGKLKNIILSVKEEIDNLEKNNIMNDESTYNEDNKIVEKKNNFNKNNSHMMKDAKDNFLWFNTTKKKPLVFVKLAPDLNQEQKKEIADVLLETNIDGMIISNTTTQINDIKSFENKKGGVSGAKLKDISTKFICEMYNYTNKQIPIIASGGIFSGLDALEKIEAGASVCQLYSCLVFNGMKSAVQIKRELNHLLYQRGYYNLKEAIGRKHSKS

[2] = target: Dihydroorotate dehydrogenase (quinone), mitochondrial (Homo sapiens, UniProt Q02127); experiment: Binding affinity to human DHODH
Dihydroorotate dehydrogenase (quinone), mitochondrial, sequence (Q02127 whole entry): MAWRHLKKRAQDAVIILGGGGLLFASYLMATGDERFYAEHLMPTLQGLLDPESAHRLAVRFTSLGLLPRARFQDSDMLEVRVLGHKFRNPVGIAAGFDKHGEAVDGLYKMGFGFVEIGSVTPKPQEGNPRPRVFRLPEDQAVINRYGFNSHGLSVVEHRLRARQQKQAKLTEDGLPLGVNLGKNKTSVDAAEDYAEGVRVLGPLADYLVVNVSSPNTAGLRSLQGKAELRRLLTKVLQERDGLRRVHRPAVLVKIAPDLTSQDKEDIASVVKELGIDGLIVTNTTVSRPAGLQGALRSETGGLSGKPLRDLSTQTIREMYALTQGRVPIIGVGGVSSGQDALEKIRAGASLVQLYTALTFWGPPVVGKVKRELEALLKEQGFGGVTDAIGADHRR

| SMILES | IC50 [1] [µM] | IC50 [2] [µM] | Ki [2] [µM] | Ki [1] [µM] |
| --- | --- | --- | --- | --- |
| O=C(Nc1ccccc1C(=O)O)c1ccc2ccccc2c1 | > 200 | 13.8 | 1.8 |  |
| O=C(Nc1ccccc1C(=O)O)c1ccc2cc(Br)ccc2c1 | 143 | 8.4 | 1.1 | 16.4 |
| CN(C(=O)c1ccc(-c2ccccc2)cc1)c1ccccc1C(=O)O | 42.6 | > 200 |  | 4.9 |
| O=C(Nc1ccccc1C(=O)O)c1ccc(-c2ccccc2)cc1 | 154 | 5 | 0.7 | 17.7 |
| CN(C(=O)c1ccc2cc(Br)ccc2c1)c1ccccc1C(=O)O | 93.4 | > 200 |  | 10.8 |
| CN(C(=O)c1ccc2ccccc2c1)c1ccccc1C(=O)O | > 200 | > 200 |  |  |
